Tests used:
Format in all cases: physicochemical
[1] = Solid form stability of Form II (ambient storage, humidity, water suspension)
Procedure: Form II was confirmed as a crystalline solid according to XRPD analysis. The XRPD pattern of Form II is shown in FIG. 17 and the peak data is given below in Table 7. […] The red pattern was recorded after storing Form II for 1 h and 20 min under ambient conditions.
Thermogravimetry coupled to Fourier Transform (TGA-FT) measurements taken during the conversion show a loss of trifluoroethanol above 100° C.

[2] = Approximate solubility in water at rt
[3] = Moisture adsorption/desorption (DVS), hygroscopicity
Procedure: Moisture Adsorption/Desorption data was collected on a DVS-1 (SMS Surface Measurements Systems) moisture balance system. The sorption/desorption isotherms were measured stepwise in a range of 0% RH to 90% RH at 25° C. A weight change of <0.002 mg/min was chosen as the criterion to switch to the next level of relative humidity (with a maximum equilibration time of 6 hours if the weight criterion was not met). The data were corrected for the initial moisture content of the samples so that the weight after drying the sample at 0% relative humidity was taken as the zero point. The hygroscopicity of a given substance was characterized, in accordance with the European Phamacopoeia (Technical Guide 1999), by the increase in mass when the relative humidity is raised from 0% RH to 90% RH, as defined below (where weight increase=x):
Slightly hygroscopic: 0.2%≤x<2.0%
Very hygroscopic: x≥15.0%
Deliquescent: Sufficient liquid as adsorbed to form a liquid

[4] = Stability of ground and kneaded Form I by XRPD; details: ball milling 10 min
Procedure: An untreated sample of Form I was ground by ball milling in a Retsch MM 200 grinder for 10 min at a frequency of 30 Hz. The sample was then analyzed by XRPD to determine its diffraction pattern. The stability of the ground sample was determined by comparing the diffraction pattern of the ground sample with that of the reference sample. […] In FIG. 26, the XRPD pattern for the Form I reference sample is shown in black and the pattern for the ground sample is shown in blue.
An untreated sample of Form I was ground by ball milling in a Retsch MM 200 grinder for 10 min at a frequency of 30 Hz with a catalytic amount of water. The sample was then analyzed by XRPD to determine its diffraction pattern. The stability of the kneaded sample was determined by comparing the diffraction pattern of the kneaded sample with that of the reference sample. […] In FIG. 27, the XRPD pattern for the Form I reference sample is shown in black and the XRPD pattern for the kneaded sample is shown in red.

[5] = Gravimetric solubility of Form I in solvents
Procedure: Solubility was determined gravimetrically. A weighted sample of Form I was suspended in a defined amount of solvent. After equilibration and solvent-liquid separation, the weight of the saturated liquid was determined. The solvent was then evaporated, the solid residue dried to dryness and weighed. The solubility is reported as weight of solid substance dissolved divided by the weight of the solution.

Cc1ccccc1-c1cc(N2CCN(C)CC2)ncc1N(C)C(=O)C(C)(C)c1cc(C(F)(F)F)cc(C(F)(F)F)c1 [Form II, 2-(3,5-bis(trifluoromethyl)phenyl)-N,2-dimethyl-N-(6-(4-methylpiperazin-1-yl)-4-(o-tolyl)pyridin-3-yl)propanamide]
conversion at 80% relative humidity ([1]; 80% relative humidity): convert to Form I
stability under ambient conditions ([1]; ambient conditions, XRPD): unstable under ambient conditions and converts to Form I
conversion after storing under ambient conditions ([1]; stored 1 h and 20 min under ambient conditions, XRPD): partial conversion to Form I
conversion upon suspension equilibration in water ([1]; suspension equilibration in water): convert to Form I

Cc1ccccc1-c1cc(N2CCN(C)CC2)ncc1N(C)C(=O)C(C)(C)c1cc(C(F)(F)F)cc(C(F)(F)F)c1 [Form III, 2-(3,5-bis(trifluoromethyl)phenyl)-N,2-dimethyl-N-(6-(4-methylpiperazin-1-yl)-4-(o-tolyl)pyridin-3-yl)propanamide]
solubility [2]: < 1000 µg/mL

Cc1ccccc1-c1cc(N2CCN(C)CC2)ncc1N(C)C(=O)C(C)(C)c1cc(C(F)(F)F)cc(C(F)(F)F)c1 [Form I, 2-(3,5-bis(trifluoromethyl)phenyl)-N,2-dimethyl-N-(6-(4-methylpiperazin-1-yl)-4-(o-tolyl)pyridin-3-yl)propanamide]
Hygroscopicity (weight change 0 to 90%-RH) ([3]; 25° C., 0% RH to 90% RH): 0.1%
Hygroscopicity classification ([3]; 25° C., 0% RH to 90% RH, European Pharmacopoeia classes): non-hygroscopic
weight gain during the drying step and the first adsorption segment ([3]; first cycle, likely due to electrostatic charges): about 0.3%
weight loss in the second cycle ([3]; second cycle): 0.1%
stability of the ground sample (XRPD vs reference) ([4]; 30 Hz): loss of crystallinity
stability of the kneaded sample (XRPD vs reference) ([4]; 30 Hz with a catalytic amount of water): increased degree of crystallinity
Solubility (% m/m) ([5]; 25° C., 1-Butanol): >11.6 % m/m
Solubility (% m/m) ([5]; 25° C., 2-Butanone): >11.2 % m/m
Solubility (% m/m) ([5]; 25° C., Acetone): >11.1 % m/m
Solubility (% m/m) ([5]; 25° C., Acetonitrile): 9 % m/m
Solubility (% m/m) ([5]; 25° C., Cyclohexane): 4.2 % m/m
Solubility (% m/m) ([5]; 25° C., Dichloroethane): >7.0 % m/m
Solubility (% m/m) ([5]; 25° C., Dioxane): >9.0 % m/m
Solubility (% m/m) ([5]; 25° C., Ethanol): >11.5 % m/m
Solubility (% m/m) ([5]; 25° C., Heptane): 1.2 % m/m
Solubility (% m/m) ([5]; 25° C., Isopropyl Acetate): 22.2 % m/m
Solubility (% m/m) ([5]; 25° C., Methanol): >11.9 % m/m
Solubility (% m/m) ([5]; 25° C., N,N-Dimethylformamide): >9.9 % m/m
Solubility (% m/m) ([5]; 25° C., Tetrahydrofuran): >9.9 % m/m
Solubility (% m/m) ([5]; 25° C., Toluene): >10.8 % m/m
Solubility (% m/m) ([5]; 25° C., Trifluoroethanol): >7.5 % m/m
Solubility (% m/m) ([5]; 25° C., Water): <0.1 % m/m
Solubility (% m/m) ([5]; 25° C., Water/Acetone 1:2): 7.0 % m/m
Solubility (% m/m) ([5]; 25° C., Water/Acetone 2:1): 0.2 % m/m
Solubility (% m/m) ([5]; 25° C., Water/Acetonitrile 1:2): 6.2 % m/m
Solubility (% m/m) ([5]; 25° C., Water/Acetonitrile 2:1): 0.5 % m/m
Solubility (% m/m) ([5]; 25° C., Water/Dioxane 1:2): 4.9 % m/m
Solubility (% m/m) ([5]; 25° C., Water/Dioxane 2:1): 0.1 % m/m
Solubility (% m/m) ([5]; 25° C., Water/Ethanol 1:2): 3.1 % m/m
Solubility (% m/m) ([5]; 25° C., Water/Ethanol 2:1): 0.1 % m/m
Solubility (% m/m) ([5]; 25° C., Water/Methanol 1:2): 1.0 % m/m
Solubility (% m/m) ([5]; 25° C., Water/Methanol 2:1): 0.2 % m/m
Solubility (% m/m) ([5]; 25° C., Xylene): 18.4 % m/m
Solubility (% m/m) ([5]; 60° C., 1-Butanol): 29.9 % m/m
Solubility (% m/m) ([5]; 60° C., 2-Butanone): >52.6 % m/m
Solubility (% m/m) ([5]; 60° C., 2-Propanol): 26.2 % m/m
Solubility (% m/m) ([5]; 60° C., Acetone): >53.3 % m/m
Solubility (% m/m) ([5]; 60° C., Acetonitrile): 14.4 % m/m
Solubility (% m/m) ([5]; 60° C., Cyclohexane): 16.0 % m/m
Solubility (% m/m) ([5]; 60° C., Dichloroethane): 34.7 % m/m
Solubility (% m/m) ([5]; 60° C., Dioxane): >41.6 % m/m
Solubility (% m/m) ([5]; 60° C., Ethanol): 33.1 % m/m
Solubility (% m/m) ([5]; 60° C., Ethyl Acetate): 45.9 % m/m
Solubility (% m/m) ([5]; 60° C., Heptane): 3.0 % m/m
Solubility (% m/m) ([5]; 60° C., Isopropyl Acetate): >35.0 % m/m
Solubility (% m/m) ([5]; 60° C., Methanol): 48.4 % m/m
Solubility (% m/m) ([5]; 60° C., N,N-Dimethylformamide): 40.7 % m/m
Solubility (% m/m) ([5]; 60° C., Tetrahydrofuran): >50.4 % m/m
Solubility (% m/m) ([5]; 60° C., Toluene): 48.8 % m/m
Solubility (% m/m) ([5]; 60° C., Trifluoroethanol): >39.1 % m/m
Solubility (% m/m) ([5]; 60° C., Water): <0.1 % m/m
Solubility (% m/m) ([5]; 60° C., Water/Acetone 1:2): 11.7 % m/m
Solubility (% m/m) ([5]; 60° C., Water/Acetone 2:1): <0.1 % m/m
Solubility (% m/m) ([5]; 60° C., Water/Acetonitrile 1:2): 6.4 % m/m
Solubility (% m/m) ([5]; 60° C., Water/Acetonitrile 2:1): <0.1 % m/m
Solubility (% m/m) ([5]; 60° C., Water/Dioxane 1:2): 21.1 % m/m
Solubility (% m/m) ([5]; 60° C., Water/Dioxane 2:1): <0.1 % m/m
Solubility (% m/m) ([5]; 60° C., Water/Ethanol 1:2): 5.5 % m/m
Solubility (% m/m) ([5]; 60° C., Water/Ethanol 2:1): <0.1 % m/m
Solubility (% m/m) ([5]; 60° C., Water/Methanol 1:2): 0.4 % m/m
Solubility (% m/m) ([5]; 60° C., Water/Methanol 2:1): <0.1 % m/m
Solubility (% m/m) ([5]; 60° C., Xylene): >35.0 % m/m

Source: patent US10676440B2, “Crystalline forms of an NK-1 antagonist” (Helsinn Healthcare SA, priority 2014, dated 2020)
